Converted amounts (≈) assume the structure as drawn. Like-named read-outs stand apart in the source and are kept apart here. Positions of bridges follow the written chain, without caps; N, C: chain ends. Non-standard residues stand in square brackets, D forms with d. Residues, ends and D or L forms follow the SMILES beside them. *: point of attachment. CH2CH2OBz(4-tBu) = CC(C)(C)c1ccc(C(=O)OCC*)cc1; Ethyl(2-decanoyloxy) = CCCCCCCCCC(=O)OCC*; Ethyl(2-butanoyloxy) = CCCC(=O)OCC*; Ethyl(2-propionyloxy) = CCC(=O)OCC*; Ethyl(2-OPiv) = CC(C)(C)C(=O)OCC*; Ethyl(2-OBz) = O=C(OCC*)c1ccccc1; Dab = NCC[C@H](N)C(=O)O; Butyryl = CCCC(=O)*
Key:
P. aeruginosa ATCC 27853 = assay type: cell-based, Pseudomonas aeruginosa
Text: (§1) All 81 compounds prepared in Examples 2 and 3 underwent screening against a panel of Gram-negative bacterium to assess their ability to inhibit bacterial growth. […] The median value is presented.

[1] = test system: K. pneumoniae ATCC 700603; assay type: cell-based, Klebsiella pneumoniae
Text: as §1

[2] = test system: K. pneumoniae ATCC MS6671; assay type: cell-based, Klebsiella pneumoniae
Text: as §1

K. pneumoniae ATCC 33495 = assay type: cell-based, Klebsiella pneumoniae
Text: as §1

E. coli ATCC 25922 = assay type: cell-based, Escherichia coli
Text: as §1

E. coli ATCC MS8345 = assay type: cell-based, Escherichia coli
Text: as §1
Expansion of the polymyxin macrocycle by substituting […]) offered little advantage in antimicrobial activity but was generally well tolerated although for A. baumanni and P. aeruginosa this was detrimental.

A. baumannii ATCC 19606 = assay type: cell-based, Acinetobacter baumannii
Text: as §1

[3] = colistin-resistant strain, median of triplicate

SMILES | MIC P. aeruginosa ATCC 27853 (P. aeruginosa ATCC 27853; ATCC 27853) | MIC K. pneumoniae ATCC 700603 ([1]; ATCC 700603) | MIC K. pneumoniae ATCC MS6671 ([2]; ATCC MS6671) | MIC K. pneumoniae ATCC 33495 (K. pneumoniae ATCC 33495; ATCC 33495) | MIC E. coli ATCC 25922 (E. coli ATCC 25922; ATCC 25922) | MIC E. coli ATCC MS8345 (E. coli ATCC MS8345; ATCC MS8345) | MIC A. baumannii ATCC 19606 (A. baumannii ATCC 19606; ATCC 19606) | MIC P. aeruginosa ATCC 27853 (P. aeruginosa ATCC 27853; median of triplicate) | MIC K. pneumoniae ATCC 700603 ([1]; median of triplicate) | MIC K. pneumoniae ATCC MS6671 ([2]; median of triplicate) | MIC K. pneumoniae ATCC 33495 (K. pneumoniae ATCC 33495; median of triplicate) | MIC E. coli ATCC 25922 (E. coli ATCC 25922; median of triplicate) | MIC E. coli ATCC MS8345 (E. coli ATCC MS8345; [3]) | MIC A. baumannii ATCC 19606 (A. baumannii ATCC 19606; median of triplicate)
CC(C)C[C@@H]1NC(=O)[C@@H](Cc2ccccc2)NC(=O)[C@H](CCN)NC(=O)[C@@H](NC(=O)[C@H](CCN)NC(=O)[C@@H](NC(=O)[C@H](CCN)NC(=O)[C@@H](N)CSCCOC(=O)c2ccc(C(C)(C)C)cc2)[C@@H](C)O)CCNC(=O)[C@H]([C@@H](C)O)NC(=O)[C@H](CCN)NC(=O)[C@H](CCN)NC1=O [Compound 34] (H-C(CH2CH2OBz(4-tBu))[Dab]T[Dab][Dab][Dab][dF]L[Dab][Dab]T; lactam 5-C) | 0.5 µg/mL (≈ 0.365 µM) | 1 µg/mL (≈ 0.73 µM) | >32 µg/mL | 0.25 µg/mL (≈ 0.182 µM) | 1 µg/mL (≈ 0.73 µM) | 1 µg/mL (≈ 0.73 µM) | 1 µg/mL (≈ 0.73 µM) | – | – | – | – | – | – | –
C[C@@H](O)[C@@H]1NC(=O)[C@H](CCN)NC(=O)[C@H](CCN)NC(=O)[C@H](CSCCOC(=O)c2ccc(C(C)(C)C)cc2)NC(=O)[C@@H](Cc2ccccc2)NC(=O)[C@H](CCN)NC(=O)[C@@H](NC(=O)[C@H](CCN)NC(=O)[C@@H](NC(=O)[C@H](CCN)NC(=O)[C@@H](N)CSCCOC(=O)c2ccc(C(C)(C)C)cc2)[C@@H](C)O)CCNC1=O [Compound 40] (H-C(CH2CH2OBz(4-tBu))[Dab]T[Dab][Dab][Dab][dF]C(CH2CH2OBz(4-tBu))[Dab][Dab]T; lactam 5-C) | 2 µg/mL (≈ 1.28 µM) | 2 µg/mL (≈ 1.28 µM) | >32 µg/mL | 2 to 4 µg/mL | 2 to 4 µg/mL | 4 µg/mL (≈ 2.56 µM) | 2 µg/mL (≈ 1.28 µM) | – | – | – | – | – | – | –
C[C@@H](O)[C@@H]1NC(=O)[C@H](CCN)NC(=O)[C@H](CCN)NC(=O)[C@H](CSCCOC(=O)c2ccccc2)NC(=O)[C@@H](Cc2ccccc2)NC(=O)[C@H](CCN)NC(=O)[C@@H](NC(=O)[C@H](CCN)NC(=O)[C@@H](NC(=O)[C@H](CCN)NC(=O)[C@@H](N)CSCCOC(=O)c2ccc(C(C)(C)C)cc2)[C@@H](C)O)CCNC1=O [Compound 41] (H-C(CH2CH2OBz(4-tBu))[Dab]T[Dab][Dab][Dab][dF]C(Ethyl(2-OBz))[Dab][Dab]T; lactam 5-C) | – | – | – | – | – | – | – | 2 µg/mL (≈ 1.33 µM) | 1 to 2 µg/mL | >32 µg/mL | 2 to 4 µg/mL | 1 µg/mL (≈ 0.663 µM) | 4 µg/mL (≈ 2.65 µM) | 2 µg/mL (≈ 1.33 µM)
CCC(=O)OCCSC[C@H](N)C(=O)N[C@@H](CCN)C(=O)N[C@H](C(=O)N[C@@H](CCN)C(=O)N[C@H]1CCNC(=O)[C@H]([C@@H](C)O)NC(=O)[C@H](CCN)NC(=O)[C@H](CCN)NC(=O)[C@H](CSCCOC(=O)C(C)(C)C)NC(=O)[C@@H](Cc2ccccc2)NC(=O)[C@H](CCN)NC1=O)[C@@H](C)O [Compound 43] (H-C(Ethyl(2-propionyloxy))[Dab]T[Dab][Dab][Dab][dF]C(Ethyl(2-OPiv))[Dab][Dab]T; lactam 5-C) | >32 µg/mL | 2 to 4 µg/mL | >32 µg/mL | 16 µg/mL (≈ 11.6 µM) | 2 µg/mL (≈ 1.44 µM) | >32 µg/mL | >32 µg/mL | – | – | – | – | – | – | –
CCCC(=O)N[C@@H](CSCCOC(=O)c1ccccc1)C(=O)N[C@@H](CCN)C(=O)N[C@H](C(=O)N[C@@H](CCN)C(=O)N[C@H]1CCNC(=O)[C@H]([C@@H](C)O)NC(=O)[C@H](CCN)NC(=O)[C@H](CCN)NC(=O)[C@H](CSCCOC(=O)c2ccccc2)NC(=O)[C@@H](Cc2ccccc2)NC(=O)[C@H](CCN)NC1=O)[C@@H](C)O [Compound 50] (Butyryl-C(Ethyl(2-OBz))[Dab]T[Dab][Dab][Dab][dF]C(Ethyl(2-OBz))[Dab][Dab]T; lactam 5-C) | – | – | – | – | – | – | – | 1 µg/mL (≈ 0.657 µM) | 1 µg/mL (≈ 0.657 µM) | >32 µg/mL | 0.5 to 1 µg/mL | 0.5 µg/mL (≈ 0.328 µM) | 16 µg/mL (≈ 10.5 µM) | 1 to 2 µg/mL

Continued, in another order:

MIC P. aeruginosa ATCC 27853 (P. aeruginosa ATCC 27853; ATCC 27853) | MIC K. pneumoniae ATCC 700603 ([1]; ATCC 700603) | MIC K. pneumoniae ATCC MS6671 ([2]; ATCC MS6671) | MIC K. pneumoniae ATCC 33495 (K. pneumoniae ATCC 33495; ATCC 33495) | MIC E. coli ATCC 25922 (E. coli ATCC 25922; ATCC 25922) | MIC E. coli ATCC MS8345 (E. coli ATCC MS8345; ATCC MS8345) | MIC A. baumannii ATCC 19606 (A. baumannii ATCC 19606; ATCC 19606) | SMILES | MIC P. aeruginosa ATCC 27853 (P. aeruginosa ATCC 27853; median of triplicate) | MIC K. pneumoniae ATCC 700603 ([1]; median of triplicate) | MIC K. pneumoniae ATCC MS6671 ([2]; median of triplicate) | MIC K. pneumoniae ATCC 33495 (K. pneumoniae ATCC 33495; median of triplicate) | MIC E. coli ATCC 25922 (E. coli ATCC 25922; median of triplicate) | MIC E. coli ATCC MS8345 (E. coli ATCC MS8345; [3]) | MIC A. baumannii ATCC 19606 (A. baumannii ATCC 19606; median of triplicate)
16 µg/mL (≈ 11.6 µM) | 0.25 to 0.5 µg/mL | >32 µg/mL | 0.25 to 0.5 µg/mL | 0.25 µg/mL (≈ 0.181 µM) | 32 µg/mL (≈ 23.1 µM) | 16 µg/mL (≈ 11.6 µM) | CCCC(=O)OCCSC[C@@H]1NC(=O)[C@@H](Cc2ccccc2)NC(=O)[C@H](CCN)NC(=O)[C@@H](NC(=O)[C@H](CCN)NC(=O)[C@@H](NC(=O)[C@H](CCN)NC(=O)[C@@H](N)CSCCOC(=O)CCC)[C@@H](C)O)CCNC(=O)[C@H]([C@@H](C)O)NC(=O)[C@H](CCN)NC(=O)[C@H](CCN)NC1=O [Compound 36] (H-C(Ethyl(2-butanoyloxy))[Dab]T[Dab][Dab][Dab][dF]C(Ethyl(2-butanoyloxy))[Dab][Dab]T; lactam 5-C) | – | – | – | – | – | – | –
4 µg/mL (≈ 2.58 µM) | 4 µg/mL (≈ 2.58 µM) | >32 µg/mL | 2 µg/mL (≈ 1.29 µM) | 2 to 4 µg/mL | 4 µg/mL (≈ 2.58 µM) | 4 µg/mL (≈ 2.58 µM) | CCCCCCCCCC(=O)OCCSC[C@@H]1NC(=O)[C@@H](Cc2ccccc2)NC(=O)[C@H](CCN)NC(=O)[C@@H](NC(=O)[C@H](CCN)NC(=O)[C@@H](NC(=O)[C@H](CCN)NC(=O)[C@@H](N)CSCCOC(=O)CCCCCCCCC)[C@@H](C)O)CCNC(=O)[C@H]([C@@H](C)O)NC(=O)[C@H](CCN)NC(=O)[C@H](CCN)NC1=O [Compound 37] (H-C(Ethyl(2-decanoyloxy))[Dab]T[Dab][Dab][Dab][dF]C(Ethyl(2-decanoyloxy))[Dab][Dab]T; lactam 5-C) | – | – | – | – | – | – | –
16 µg/mL (≈ 11.6 µM) | 0.25 to 0.5 µg/mL | >32 µg/mL | 0.25 to 0.5 µg/mL | 0.25 µg/mL (≈ 0.181 µM) | 16 to 32 µg/mL | 2 to 4 µg/mL | CCC(=O)OCCSC[C@@H]1NC(=O)[C@@H](Cc2ccccc2)NC(=O)[C@H](CCN)NC(=O)[C@@H](NC(=O)[C@H](CCN)NC(=O)[C@@H](NC(=O)[C@H](CCN)NC(=O)[C@@H](N)CSCCOC(=O)C(C)(C)C)[C@@H](C)O)CCNC(=O)[C@H]([C@@H](C)O)NC(=O)[C@H](CCN)NC(=O)[C@H](CCN)NC1=O [Compound 45] (H-C(Ethyl(2-OPiv))[Dab]T[Dab][Dab][Dab][dF]C(Ethyl(2-propionyloxy))[Dab][Dab]T; lactam 5-C) | – | – | – | – | – | – | –
